This note sets out measurements from patent US20240067631A1, “PYRAZOLE DERIVATIVES USEFUL AS NAMPT MODULATORS” (Cytokinetics, Inc., priority 2020, published 2024).

The experiment has as its target human NAMPT (Homo sapiens (Human), UniProt P43490). Description: Human recombinant enzyme assay (NMN fluorescence biochemical assay). As to conditions: 6 nM human NAMPT, 60 min; for AC1.4 Human: concentration of compound that generates 40% higher activity over basal; for EC50: concentration that gives half-maximal activation. The gist of the method:
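Recombinant human NAMPT (6 nM) with 2.5 mM ATP, […] PRPP and […] nicotinamide in HEPES pH 7.2 with DTT, CHAPS, NaCl, MgCl2; 60 min at ambient temperature. NMN derivatised with acetophenone/KOH/formic acid, fluorescence read at 355/460 nm. AC1.4 (40% above basal) and EC50 reported.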

Chain of human NAMPT (P43490 whole entry): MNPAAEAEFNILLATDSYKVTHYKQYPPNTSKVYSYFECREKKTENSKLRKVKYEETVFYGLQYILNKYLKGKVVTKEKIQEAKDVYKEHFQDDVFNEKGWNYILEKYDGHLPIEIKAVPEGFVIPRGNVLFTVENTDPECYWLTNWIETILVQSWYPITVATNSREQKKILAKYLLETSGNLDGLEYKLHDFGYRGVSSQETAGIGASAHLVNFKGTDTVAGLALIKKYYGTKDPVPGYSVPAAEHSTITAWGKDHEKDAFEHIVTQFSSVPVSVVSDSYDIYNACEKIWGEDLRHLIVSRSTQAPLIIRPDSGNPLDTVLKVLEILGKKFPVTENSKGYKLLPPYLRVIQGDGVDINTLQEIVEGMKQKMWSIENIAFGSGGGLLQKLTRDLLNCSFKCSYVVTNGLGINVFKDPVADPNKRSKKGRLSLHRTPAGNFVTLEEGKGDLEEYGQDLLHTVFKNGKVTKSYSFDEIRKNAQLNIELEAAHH

As a reminder, the EC50 is the concentration needed to bring the measured effect to its halfway point. With `Cc1nc(C(=O)N2CC(O)(c3cccc(F)c3F)C2)nc(NCCc2cn[nH]c2)c1C` [Compound 51, (4-((2-(1H-pyrazol-4-yl)ethyl)amino)-5,6-dimethylpyrimidin-2-yl)(3-(2,3-difluorophenyl)-3-hydroxyazetidin-1-yl)methanone], the “AC1.4 Human” value turned out to be 0.327 µM and the EC50 was 1.88 µM.
With `Cc1nc(C(=O)NC(C)(C)Cc2cccc(F)c2)nc(NCCc2cn[nH]c2)c1C` [Compound 41, 4-((2-(1H-pyrazol-4-yl)ethyl)amino)-N-(1-(3-fluorophenyl)-2-methylpropan-2-yl)-5,6-dimethylpyrimidine-2-carboxamide], the “AC1.4 Human” value turned out to be 0.2615 µM and the half-maximal effective concentration (EC50) came to 2.87 µM.
The corresponding values for `Cc1nc(C(=O)N2CCN(C)CC2c2ccccc2)nc(NCCc2cn[nH]c2)c1C` (stereo not drawn) [Compound 44, (4-((2-(1H-pyrazol-4-yl)ethyl)amino)-5,6-dimethylpyrimidin-2-yl)(4-methyl-2-phenylpiperazin-1-yl)methanone] are 0.275 µM and 1.84 µM.
With `COc1cccc(CNC(=O)c2nc(C)c(C)c(NCCc3cn[nH]c3)n2)n1` [Compound 88, 4-((2-(1H-pyrazol-4-yl)ethyl)amino)-N-((6-methoxypyridin-2-yl)methyl)-5,6-dimethylpyrimidine-2-carboxamide], the “AC1.4 Human” value worked out at 1.1435 µM and the concentration for a half-maximal effect (EC50) stood at 7.21 µM.
Regarding `Cc1nc(C(=O)Nc2ccncc2F)nc(NCCc2cn[nH]c2)c1C` [Compound 144, 4-((2-(1H-pyrazol-4-yl)ethyl)amino)-N-(3-fluoropyridin-4-yl)-5,6-dimethylpyrimidine-2-carboxamide], the “AC1.4 Human” value was found to be 4.755 µM and the EC50 turned out to be 18.4 µM.
The corresponding values for `Cc1nc(C(=O)N2CCOC[C@H]2Cc2ccccc2)nc(NCCc2cn[nH]c2)c1C` [Compound 64, (R)-(4-((2-(1H-pyrazol-4-yl)ethyl)amino)-5,6-dimethylpyrimidin-2-yl)(3-benzylmorpholino)methanone] are 0.458 µM and 2.16 µM.
As to `Cc1nc(C(=O)NCC2(c3ccccc3)COC2)nc(NCCc2cn[nH]c2)c1C` [Compound 94, 4-((2-(1H-pyrazol-4-yl)ethyl)amino)-5,6-dimethyl-N-((3-phenyloxetan-3-yl)methyl)pyrimidine-2-carboxamide], the “AC1.4 Human” value was 1.271 µM and the EC50 is 8.13 µM.
As to `Cc1nc(C(=O)N2CCOCC2C(F)(F)F)nc(NCCc2cn[nH]c2)c1C` (stereo not drawn) [Compound 138, (4-((2-(1H-pyrazol-4-y)ethyl)amino)-5,6-dimethylpyrimidin-2-yl)(3-(trifluoromethyl)morpholino)methanone], the “AC1.4 Human” value amounted to 4.125 µM and the EC50 was determined as 30.7 µM.
For `Cc1nc(C(=O)N2CCC(F)(F)CC2c2ccccc2)nc(NCCc2cn[nH]c2)c1C` (stereo not drawn) [Compound 28, (4-((2-(1H-pyrazol-4-yl)ethyl)amino)-5,6-dimethylpyrimidin-2-yl)(4,4-difluoro-2-phenylpiperidin-1-yl)methanone], the “AC1.4 Human” value was 0.144 µM and the EC50 amounted to 1.36 µM.
Take `Cc1nc(C(=O)N2CC(O)(C(F)(F)F)C2)nc(NCCc2cn[nH]c2)c1C` [Compound 48, (4-((2-(1H-pyrazol-4-yl)ethyl)amino)-5,6-dimethylpyrimidin-2-yl)(3-hydroxy-3-(trifluoromethyl)azetidin-1-yl)methanone]: the “AC1.4 Human” value is 0.2925 µM and the EC50 is 6.83 µM.
`Cc1nc(C(=O)NC(c2cccc(F)c2)c2ccccn2)nc(NCCc2cn[nH]c2)c1C` (stereo not drawn) [Compound 46, 4-((2-(1H-pyrazol-4-yl)ethyl)amino)-N-((3-fluorophenyl)(pyridin-2-yl)methyl)-5,6-dimethylpyrimidine-2-carboxamide]: the “AC1.4 Human” value was 0.2845 µM and the EC50 was found to be 2.35 µM.
On to `Cc1nc(C(=O)NC(c2ccc(F)c(F)c2)c2nccn2C)nc(NCCc2cn[nH]c2)c1C` (stereo not drawn) [Compound 134, 4-((2-(1H-pyrazol-4-yl)ethyl)amino)-N-((3,4-difluorophenyl)(1-methyl-1H-imidazol-2-yl)methyl)-5,6-dimethylpyrimidine-2-carboxamide], for which the “AC1.4 Human” value was determined as 3.578 µM and the EC50 was 26.2 µM.
For the compound `Cc1nc(C(=O)N[C@H](C)c2cc3ccccc3o2)nc(NCCc2cn[nH]c2)c1C` [Compound 112, (R)-4-((2-(1H-pyrazol-4-yl)ethyl)amino)-N-(1-(benzofuran-2-yl)ethyl)-5,6-dimethylpyrimidine-2-carboxamide], the “AC1.4 Human” value came to 2.084 µM and the EC50 turned out to be 2.97 µM.
As for `Cc1nc(C(=O)N[C@H](C)C2CCCCC2)nc(NCCc2cn[nH]c2)c1C` [Compound 116, (R)-4-((2-(1H-pyrazol-4-yl)ethyl)amino)-N-(1-cyclohexylethyl)-5,6-dimethylpyrimidine-2-carboxamide], the “AC1.4 Human” value stood at 2.9705 µM and the EC50 was found to be 29.6 µM.
For `Cc1nc(C(=O)N2C[C@H](c3ccccc3)[C@@H](O)C2)nc(NCCc2cn[nH]c2)c1C` [Compound 42, (4-((2-(1H-pyraazol-4-yl)ethyl)amino)-5,6-dimethylpyrimidin-2-yl)((3R,4S)-3-hydroxy-4-phenylpyrrolidin-1-yl)methanone], the “AC1.4 Human” value came out at 0.265 µM and the EC50 came out at 2.92 µM.
On to `Cc1nc(C(=O)N2CC[C@@H](c3ccccc3)C2)nc(NCCc2cn[nH]c2)c1C` [Compound 61, (S)-(4-((2-(1H-pyrazol-4-yl)ethyl)amino)-5,6-dimethylpyrimidin-2-yl)(3-phenylpyrrolidin-1-yl)methanone], for which the “AC1.4 Human” value is 0.409 µM and the EC50 came out at 2.11 µM.
The corresponding values for `Cc1nc(C(=O)NCC(O)(c2ccccc2)C(F)(F)F)nc(NCCc2cn[nH]c2)c1C` (stereo not drawn) [Compound 122, 4-((2-(1H-pyrazol-4-yl)ethyl)amino)-5,6-dimethyl-N-(3,3,3-trifluoro-2-hydroxy-2-phenylpropyl)pyrimidine-2-carboxamide] are 2.574 µM and 16.7 µM.
The corresponding values for `Cc1nc(C(=O)N2CC(O)(c3cccc(F)c3)C2)nc(NCCc2cn[nH]c2)c1C` [Compound 3, (4-((2-(1H-pyrazol-4-yl)ethyl)amino)-5,6-dimethylpyrimidin-2-yl)(3-(3-fluorophenyl)-3-hydroxyazetidin-1-yl)methanone] are 0.0165 µM and 0.653 µM.
On to `Cc1nc(C(=O)N2CCC[C@@H]2c2ccccn2)nc(NCCc2cn[nH]c2)c1C` [Compound 126, (R)-(4-((2-(1H-pyrazol-4-yl)ethyl)amino)-5,6-dimethylpyrimidin-2-yl)(2-(pyridin-2-yl)pyrrolidin-1-yl)methanone], for which the “AC1.4 Human” value was found to be 3.1455 µM and the EC50 was found to be 13.4 µM.
Consider `Cc1nc(C(=O)N2CCC2c2ccccc2)nc(NCCc2cn[nH]c2)c1C` (stereo not drawn) [Compound 132, (4-((2-(1H-pyrazol-4-yl)ethyl)amino)-5,6-dimethylpyrimidin-2-yl)(2-phenylazetidin-1-yl)methanone], for which the “AC1.4 Human” value stood at 3.5055 µM and the EC50 was determined as 13.1 µM.
The corresponding values for `Cc1nc(C(=O)N2CC(C)(O)C2)nc(NCCc2cn[nH]c2)c1C` [Compound 125, (4-((2-(1H-pyrazol-4-yl)ethyl)amino)-5,6-dimethylpyrimidin-2-yl)(3-hydroxy-3-methylazetidin-1-yl)methanone] are 4.313 µM and 22 µM.
